Legend:
mGlu2 = mGlu2 (Rattus norvegicus (Rat), UniProt P31421); experiment: mGlu2 GIRK thallium flux assay; conditions: for EC50: read-out: mGlu2 PAM EC50, PAM mode, test compound, then EC20 glutamate […] later in the presence of thallium, mean ± SEM, at least three experiments; for Emax: read-out: mGlu2 PAM Max;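 on all read-outs here: Cell-based assay, rate of fluorescence rise right after thallium plus agonist addition read on a kinetic imaging plate reader, normalized to vehicle and maximal agonist control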
Sequence of mGlu2 (P31421 19-872): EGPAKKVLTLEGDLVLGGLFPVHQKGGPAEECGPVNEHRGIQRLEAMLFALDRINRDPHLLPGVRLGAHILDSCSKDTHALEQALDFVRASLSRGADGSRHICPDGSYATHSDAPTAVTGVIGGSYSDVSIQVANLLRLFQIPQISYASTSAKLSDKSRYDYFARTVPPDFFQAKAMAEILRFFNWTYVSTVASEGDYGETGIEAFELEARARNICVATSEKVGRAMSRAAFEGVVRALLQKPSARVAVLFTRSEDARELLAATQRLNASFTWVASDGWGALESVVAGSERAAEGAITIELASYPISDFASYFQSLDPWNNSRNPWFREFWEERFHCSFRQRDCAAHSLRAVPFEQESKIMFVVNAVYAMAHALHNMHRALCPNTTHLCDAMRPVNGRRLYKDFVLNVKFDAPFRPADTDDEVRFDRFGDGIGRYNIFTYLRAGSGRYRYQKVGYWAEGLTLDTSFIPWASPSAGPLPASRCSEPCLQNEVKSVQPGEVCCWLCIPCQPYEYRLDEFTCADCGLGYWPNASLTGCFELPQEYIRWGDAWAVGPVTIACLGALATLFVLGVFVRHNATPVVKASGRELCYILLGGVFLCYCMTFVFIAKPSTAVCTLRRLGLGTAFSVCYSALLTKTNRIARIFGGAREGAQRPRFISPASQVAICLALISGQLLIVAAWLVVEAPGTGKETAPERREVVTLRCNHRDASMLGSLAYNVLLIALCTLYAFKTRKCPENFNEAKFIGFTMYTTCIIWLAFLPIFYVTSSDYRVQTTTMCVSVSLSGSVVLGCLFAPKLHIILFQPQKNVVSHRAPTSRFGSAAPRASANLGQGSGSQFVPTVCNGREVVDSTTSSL

mGlu3 = mGlu3 (Rattus norvegicus (Rat), UniProt P31422); experiment: mGlu3 GIRK thallium flux assay; conditions: for EC50: read-out: mGlu3 PAM EC50, PAM mode, test compound, then EC20 glutamate […] later in the presence of thallium, mean ± SEM; for Emax: read-out: mGlu3 PAM Max;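 on all read-outs here: kinetic fluorescence slope read shortly after thallium plus agonist addition, scaled between vehicle and maximal agonist control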
Sequence of mGlu3 (P31422 23-879): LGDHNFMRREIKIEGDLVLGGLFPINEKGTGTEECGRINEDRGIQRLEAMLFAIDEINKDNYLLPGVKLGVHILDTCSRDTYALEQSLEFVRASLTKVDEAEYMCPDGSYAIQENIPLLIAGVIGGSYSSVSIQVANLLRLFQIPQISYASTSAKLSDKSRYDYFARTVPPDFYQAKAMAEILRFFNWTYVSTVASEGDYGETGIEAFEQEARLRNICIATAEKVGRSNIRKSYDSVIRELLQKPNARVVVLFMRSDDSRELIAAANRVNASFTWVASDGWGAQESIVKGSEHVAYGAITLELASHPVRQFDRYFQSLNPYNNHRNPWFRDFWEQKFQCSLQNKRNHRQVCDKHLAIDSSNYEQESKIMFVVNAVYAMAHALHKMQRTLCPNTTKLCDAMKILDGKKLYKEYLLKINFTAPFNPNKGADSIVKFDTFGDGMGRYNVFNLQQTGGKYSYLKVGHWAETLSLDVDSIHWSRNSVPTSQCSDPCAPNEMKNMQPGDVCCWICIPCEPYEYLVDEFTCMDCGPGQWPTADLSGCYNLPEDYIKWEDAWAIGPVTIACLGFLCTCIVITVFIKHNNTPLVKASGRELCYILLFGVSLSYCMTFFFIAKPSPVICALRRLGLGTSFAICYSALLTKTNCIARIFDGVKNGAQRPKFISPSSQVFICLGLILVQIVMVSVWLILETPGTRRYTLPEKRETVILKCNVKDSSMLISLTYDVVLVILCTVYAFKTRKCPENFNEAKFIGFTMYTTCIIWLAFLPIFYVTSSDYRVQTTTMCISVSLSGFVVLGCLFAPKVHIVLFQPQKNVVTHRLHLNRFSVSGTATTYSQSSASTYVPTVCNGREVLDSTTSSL

Row | SMILES | EC50 (mGlu2) | Emax (mGlu2) | EC50 (mGlu3) | Emax (mGlu3)
1 | COc1ccc(C(=O)NCC(C)C)cc1OCCCCOc1ccc(C(=O)CC(C)(C)C)c(O)c1C [compound 110, 3-(4-(4-(3,3-Dimethylbutanoyl)-3-hydroxy-2-methylphenoxy)butoxy)-N-isobutyl-4-methoxybenzamide] | 6400 ± 389 nM | 48.4 ± 5.5% | > 30000 nM | 31.7 ± 8.5%
2 | CONC(=O)c1ccc(OC)c(OCCCCOc2ccc(C(=O)CC(C)(C)C)c(O)c2C)c1 [compound 90, 3-(4-(4-(3,3-Dimethylbutanoyl)-3-hydroxy-2-methylphenoxy)butoxy)-N,4-dimethoxybenzamide] | 3890 ± 317 nM | 82.4 ± 3.4% | 6600 ± 1450 nM | 78.7 ± 6.2%
3 | COc1ccc(C(=O)NC2CC2)cc1OCCCCOc1ccc(C(=O)CC(C)(C)C)c(O)c1C [compound 109, N-Cyclopropyl-3-(4-(4-(3,3-dimethylbutanoyl)-3-hydroxy-2-methylphenoxy)butoxy)-4-methoxybenzamide] | 765 ± 5 nM | 101.5 ± 0.9% | 578 ± 12 nM | 106 ± 5.1%
4 | COc1ccc(-c2nsc(=O)[nH]2)cc1OCCCCOc1ccc(C(=O)CC(C)(C)C)c(O)c1C [compound 100, 3-(3-(4-(4-(3,3-Dimethylbutanoyl)-3-hydroxy-2-methylphenoxy)butoxy)-4-methoxyphenyl)-1,2,4-thiadiazol-5(4H)-one] | 2220 ± 709 nM | 68.1 ± 0.9% | > 30000 nM | 33.9 ± 10.1%
5 | Cc1c(OCc2cccc(-c3cc(C(=O)O)cc([N+](=O)[O-])c3)c2)ccc(C(=O)CC(C)(C)C)c1O [compound 146, 3′-((4-(3,3-Dimethylbutanoyl)-3-hydroxy-2-methylphenoxy)methyl)-5-nitro-[1,1′-biphenyl]-3-carboxylic acid] | 564 ± 156 nM | 98.7 ± 5.9% | 2130 ± 812 nM | 74.5 ± 11.7%
6 | Cc1c(OCc2cccc(-c3ccc(F)c(C(=O)O)c3)c2)ccc(C(=O)CC(C)(C)C)c1O [compound 135, 3′-((4-(3,3-Dimethylbutanoyl)-3-hydroxy-2-methylphenoxy)methyl)-4-fluoro-[1,1′-biphenyl]-3-carboxylic acid] | 208 ± 20 nM | 88.5 ± 3.8% | 587 ± 129 nM | 74.4 ± 5%
7 | COc1cc(C(=O)NO)ccc1OCCCCOc1ccc(C(=O)CC(C)(C)C)c(O)c1C [compound 88, 4-(4-(4-(3,3-Dimethylbutanoyl)-3-hydroxy-2-methylphenoxy)butoxy)-N-hydroxy-3-methoxybenzamide] | 2420 ± 278 nM | 86.4 ± 2.6% | 5460 ± 184 nM | 53.5 ± 10.6%
8 | Cc1c(OCc2ccc(-c3cccc(C(=O)O)c3)o2)ccc(C(=O)CC(C)(C)C)c1O [compound 158, 3-(5-((4-(3,3-Dimethylbutanoyl)-3-hydroxy-2-methylphenoxy)methyl)furan-2-yl)benzoic acid] | 328 nM | 106 ± 3.8% | 421 ± 5 nM | 110 ± 3.9%
9 | COc1ccc(C#N)cc1OCCCCOc1ccc(C(=O)CC(C)(C)C)c(O)c1C [compound 91, 3-(4-(4-(3,3-Dimethylbutanoyl)-3-hydroxy-2-methylphenoxy)butoxy)-4-methoxybenzonitrile] | > 10000 nM | 48.2 ± 7.4% | > 30000 nM | 33.7 ± 7.4%
10 | COc1ccc(C(=O)Nc2ccccn2)cc1OCCCCOc1ccc(C(=O)CC(C)(C)C)c(O)c1C [compound 106, 3-(4-(4-(3,3-Dimethylbutanoyl)-3-hydroxy-2-methylphenoxy)butoxy)-4-methoxy-N-(pyridin-2-yl)benzamide] | – | 74.8 ± 5.9% | – | 97.4 ± 9.4%
11 | COc1ccc(-c2noc(=O)[nH]2)cc1OCCCCOc1ccc(C(=O)CC(C)(C)C)c(O)c1C [compound 98, 3-(3-(4-(4-(3,3-Dimethylbutanoyl)-3-hydroxy-2-methylphenoxy)butoxy)-4-methoxyphenyl)-1,2,4-oxadiazol-5(4H)-one] | 681 ± 90 nM | 101 ± 2.9% | 1230 ± 185 nM | 102 ± 4.7%

— patent US10099993B2, “Metabotropic glutamate receptor positive allosteric modulators (PAMS) and uses thereof” (Sanford-Burnham Medical Research Institute, priority 2014, dated 2018)
